Target: T1, Chk1 (Homo sapiens, UniProt O14757)
T1 construct: purchased Upstate Biotechnology
T1 sequence (O14757 1-476): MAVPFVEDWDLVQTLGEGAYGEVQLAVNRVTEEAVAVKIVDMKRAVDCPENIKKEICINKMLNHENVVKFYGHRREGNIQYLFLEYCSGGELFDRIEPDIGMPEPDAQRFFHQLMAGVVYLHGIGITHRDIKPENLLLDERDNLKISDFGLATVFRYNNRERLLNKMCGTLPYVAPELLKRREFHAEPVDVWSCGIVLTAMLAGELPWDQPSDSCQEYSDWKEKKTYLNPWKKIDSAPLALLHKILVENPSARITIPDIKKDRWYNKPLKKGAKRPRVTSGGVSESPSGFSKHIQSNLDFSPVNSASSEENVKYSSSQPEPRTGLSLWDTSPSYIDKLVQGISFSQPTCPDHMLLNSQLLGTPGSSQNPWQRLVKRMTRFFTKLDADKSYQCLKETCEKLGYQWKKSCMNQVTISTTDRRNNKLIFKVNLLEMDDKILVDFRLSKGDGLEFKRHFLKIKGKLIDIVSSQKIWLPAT
Assay: Chk1 kinase assay: incorporation of γ-33P ATP into immobilized myelin basic protein
Assay type: biochemical
Conditions: Table 11; Chk1 only; read-out: Chk1 IC50
In short: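 Enzyme activity is measured as γ-33P transfer from ATP onto immobilized MBP over 1 h at room temperature, with Chk1 at 10 nM/10 μM unlabeled ATP and Chk2 at 20 nM/30 μM unlabeled ATP. Compounds are tested in 1% DMSO.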

Row | Structure (SMILES) | IC50
1 | CCN1CC[C@H](NC(=O)c2nc(-c3cccc(C(=O)NCc4ccccc4)c3)cnc2N)C1 [Example 700, 3-amino-N-[(3S)-1-ethylpyrrolidin-3-yl]-6-(3-{[(phenylmethyl)amino]carbonyl}phenyl)pyrazine-2-carboxamide] | 50 to 1000 nM
2 | Cn1nc(-c2nc(-c3cccc(C(=O)NCc4ccccc4)c3)cnc2N)nc1C1CCCCN1 (stereo not shown) [Example 701, 3-[5-amino-6-(1-methyl-5-piperidin-2-yl-1H-1,2,4-triazol-3-yl)pyrazin-2-yl]-N-(phenylmethyl)benzamide] | ≥ 10000 nM
3 | Cc1nc(-c2nc(-c3cccc(C(=O)NCc4ccccc4)c3)cnc2N)nn1-c1ccccn1 [Example 702, 3-[5-amino-6-(5-methyl-1-pyridin-2-yl-1H-1,2,4-triazol-3-yl)pyrazin-2-yl]-N-(phenylmethyl)benzamide] | 1000 to 10000 nM
4 | Nc1ncc(-c2cccc(CO)c2)nc1-c1nc(C2CNCCO2)n[nH]1 (stereo not shown) [Example 703, {3-[5-amino-6-(3-morpholin-2-yl-1H-1,2,4-triazol-5-yl)pyrazin-2-yl]phenyl}methanol] | 50 to 1000 nM
5 | Nc1ncc(-c2cccc(CN[C@H]3CCc4ccccc43)c2)nc1-c1nc([C@H]2CCCNC2)n[nH]1 [Example 704, 5-(3-{[(1S)-2,3-dihydro-1H-inden-1-ylamino]methyl}phenyl)-3-{3-[(3S)-piperidin-3-yl]-1H-1,2,4-triazol-5-yl}pyrazin-2-amine] | < 50 nM
6 | Nc1ncc(-c2cccc(CN[C@H]3CCc4ccccc43)c2)nc1-c1nc([C@@H]2CCCNC2)n[nH]1 [Example 705, 5-(3-{[(1S)-2,3-dihydro-1H-inden-1-ylamino]methyl}phenyl)-3-{3-[(3R)-piperidin-3-yl]-1H-1,2,4-triazol-5-yl}pyrazin-2-amine] | < 50 nM
7 | CCN1CC[C@H](NC(=O)c2nc(-c3cccc(C(=O)N[C@H]4CCc5ccccc54)c3)cnc2N)C1 [Example 706, 3-amino-6-(3-{[(1S)-2,3-dihydro-1H-inden-1-ylamino]carbonyl}phenyl)-N-[(3S)-1-ethylpyrrolidin-3-yl]pyrazine-2-carboxamide] | 50 to 1000 nM
8 | CCNc1ncc(-c2cccc(C(=O)N[C@H]3CCc4ccccc43)c2)nc1C(=O)N[C@H]1CCN(CC)C1 [Example 707, 6-(3-{[(1S)-2,3-dihydro-1H-inden-1-ylamino]carbonyl}phenyl)-3-(ethylamino)-N-[(3S)-1-ethylpyrrolidin-3-yl]pyrazine-2-carboxamide] | ≥ 10000 nM
9 | Nc1ncc(-c2cccc(C(=O)N[C@H]3c4ccccc4C[C@H]3O)c2)nc1C(=O)N[C@H]1CCNC1 [Example 708, 3-amino-6-[3-({[(1S,2R)-2-hydroxy-2,3-dihydro-1H-inden-1-yl]amino}carbonyl)phenyl]-N-[(3S)-pyrrolidin-3-yl]pyrazine-2-carboxamide] | 50 to 1000 nM
10 | CC(C)(C)OC(=O)N1CC[C@H](NC(=O)c2nc(-c3cccc(C(=O)N[C@H]4CCc5ccccc54)c3)cnc2N)C1 [Example 709, 1,1-dimethylethyl (3S)-3-({[3-amino-6-(3-{[(1S)-2,3-dihydro-1H-inden-1-ylamino]carbonyl}phenyl)pyrazin-2-yl]carbonyl}amino)pyrrolidine-1-carboxylate] | ≥ 10000 nM
11 | C[C@@H](NC(=O)c1cccc(-c2cnc(N)c(C(=O)N[C@H]3CCN(C(=O)OC(C)(C)C)C3)n2)c1)c1ccccc1 [Example 710, 1,1-dimethylethyl (3S)-3-[({3-amino-6-[3-({[(1R)-1-phenylethyl]amino}carbonyl)phenyl]pyrazin-2-yl}carbonyl)amino]pyrrolidine-1-carboxylate] | ≥ 10000 nM
12 | CC(C)(C)OC(=O)N1CC[C@H](NC(=O)c2nc(-c3cccc(C(=O)N4CCc5ccccc5C4)c3)cnc2N)C1 [Example 711, 1,1-dimethylethyl (3S)-3-[({3-amino-6-[3-(3,4-dihydroisoquinolin-2(1H)-ylcarbonyl)phenyl]pyrazin-2-yl}carbonyl)amino]pyrrolidine-1-carboxylate] | ≥ 10000 nM
13 | CC(C)(C)OC(=O)N1CC[C@H](NC(=O)c2nc(-c3cccc(C(=O)NCCc4ccccc4)c3)cnc2N)C1 [Example 712, 1,1-dimethylethyl (3S)-3-({[3-amino-6-(3-{[(2-phenylethyl)amino]carbonyl}phenyl)pyrazin-2-yl]carbonyl}amino)pyrrolidine-1-carboxylate] | ≥ 10000 nM
14 | C[C@H](NC(=O)c1cccc(-c2cnc(N)c(C(=O)N[C@H]3CCN(C(=O)OC(C)(C)C)C3)n2)c1)c1ccccc1 [Example 713, 1,1-dimethylethyl (3S)-3-[({3-amino-6-[3-({[(1S)-1-phenylethyl]amino}carbonyl)phenyl]pyrazin-2-yl}carbonyl)amino]pyrrolidine-1-carboxylate] | 1000 to 10000 nM
15 | Nc1ncc(-c2cccc(C(=O)N3CCc4ccccc4C3)c2)nc1C(=O)N[C@H]1CCNC1 [Example 714, 3-amino-6-[3-(3,4-dihydroisoquinolin-2(1H)-ylcarbonyl)phenyl]-N-[(3S)-pyrrolidin-3-yl]pyrazine-2-carboxamide] | 50 to 1000 nM
16 | Nc1ncc(-c2cccc(C(=O)NCCc3ccccc3)c2)nc1C(=O)N[C@H]1CCNC1 [Example 715, 3-amino-6-(3-{[(2-phenylethyl)amino]carbonyl}phenyl)-N-[(3S)-pyrrolidin-3-yl]pyrazine-2-carboxamide] | 50 to 1000 nM
17 | C[C@H](NC(=O)c1cccc(-c2cnc(N)c(C(=O)N[C@H]3CCNC3)n2)c1)c1ccccc1 [Example 717, 3-amino-6-[3-({[(1S)-1-phenylethyl]amino}carbonyl)phenyl]-N-[(3S)-pyrrolidin-3-yl]pyrazine-2-carboxamide] | 50 to 1000 nM
18 | CCNNC(=N)c1nc(-c2cccc(C(=O)NC3CCc4ccccc43)c2)cnc1N (stereo not shown) [Example 718, 3-{5-amino-6-[(2-ethylhydrazino)(imino)methyl]pyrazin-2-yl}-N-(2,3-dihydro-1H-inden-1-yl)benzamide] | 1000 to 10000 nM
19 | CNNC(=N)c1nc(-c2cccc(C(=O)N[C@H]3CCc4ccccc43)c2)cnc1N [Example 719, 3-{5-amino-6-[imino(2-methylhydrazino)methyl]pyrazin-2-yl}-N-[(1S)-2,3-dihydro-1H-inden-1-yl)benzamide] | 1000 to 10000 nM
20 | Cn1nc(-c2nc(-c3cccc(C(=O)N[C@H]4CCc5ccccc54)c3)cnc2N)nc1C1CCCN(C(=O)OCc2ccccc2)C1 (stereo partly drawn) [Example 721, phenylmethyl 3-{3-[3-amino-6-(3-{[(1S)-2,3-dihydro-1H-inden-1-ylamino]carbonyl}phenyl)pyrazin-2-yl]-1-methyl-1H-1,2,4-triazol-5-yl}piperidine-1-carboxylate] | ≥ 10000 nM
21 | CCn1nc(-c2nc(-c3cccc(C(=O)N[C@H]4CCc5ccccc54)c3)cnc2N)nc1C1CCCN(C(=O)OCc2ccccc2)C1 (stereo partly drawn) [Example 722, phenylmethyl 3-{3-[3-amino-6-(3-{[(1S)-2,3-dihydro-1H-inden-1-ylamino]carbonyl}phenyl)pyrazin-2-yl]-1-ethyl-1H-1,2,4-triazol-5-yl}piperidine-1-carboxylate] | ≥ 10000 nM
22 | Nc1ncc(-c2cccc(CN[C@H]3CCc4ccccc43)c2)nc1-c1nc(-c2ccncc2)n[nH]1 [Example 723, 5-(3-{[(1S)-2,3-dihydro-1H-inden-1-ylamino]methyl}phenyl)-3-(3-pyridin-4-yl-1H-1,2,4-triazol-5-yl)pyrazin-2-amine] | < 50 nM

From patent publication US7704995B2 (Exelixis, Inc., priority 2003, dated 2010)
